Test results from the CheMixHub ionic liquid set.
± gives the uncertainty stated by the source.

Assay: xn = mol fraction of the nth substance listed

CC[n+]1ccn(C)c1.[Br-] + C[NH2+]CCC=C1c2ccccc2CCc2ccccc21.[Cl-] + O
viscosity (288.15 K, 100 kPa, x2 = 0, x1 = 0.0001802): 1.141 ± 0.043 mPa·s | viscosity (288.15 K, 100 kPa, x2 = 0, x1 = 0.0007203): 1.147 ± 0.044 mPa·s | viscosity (288.15 K, 100 kPa, x2 = 0, x1 = 0.00126): 1.152 ± 0.044 mPa·s | viscosity (298.15 K, 100 kPa, x2 = 0, x1 = 0.0001802): 0.911 ± 0.043 mPa·s | viscosity (298.15 K, 100 kPa, x2 = 0, x1 = 0.0007203): 0.916 ± 0.043 mPa·s | viscosity (298.15 K, 100 kPa, x2 = 0, x1 = 0.00126): 0.923 ± 0.043 mPa·s | viscosity (308.15 K, 100 kPa, x2 = 0, x1 = 0.0001802): 0.744 ± 0.043 mPa·s | viscosity (308.15 K, 100 kPa, x2 = 0, x1 = 0.0007203): 0.748 ± 0.043 mPa·s | viscosity (308.15 K, 100 kPa, x2 = 0, x1 = 0.00126): 0.754 ± 0.043 mPa·s | viscosity (318.15 K, 100 kPa, x2 = 0, x1 = 0.0001802): 0.627 ± 0.042 mPa·s | viscosity (318.15 K, 100 kPa, x2 = 0, x1 = 0.0007203): 0.632 ± 0.042 mPa·s | viscosity (318.15 K, 100 kPa, x2 = 0, x1 = 0.00126): 0.639 ± 0.042 mPa·s

CCCC[N+](CCCC)(CCCC)CCCC.O=S(=O)([O-])O + Cc1ncc(C[n+]2csc(CCO)c2C)c(N)n1.Cl.[Cl-] + O
viscosity (298.15 K, 101 kPa, x2 = 0.0003644, x1 = 0.0003601): 0.9075 ± 0.0091 mPa·s | viscosity (298.15 K, 101 kPa, x2 = 0.0003645, x1 = 9.006e-05): 0.9037 ± 0.0091 mPa·s | viscosity (298.15 K, 101 kPa, x2 = 0.000365, x1 = 0.0001801): 0.905 ± 0.0091 mPa·s | viscosity (298.15 K, 101 kPa, x2 = 0.0003656, x1 = 0.0002701): 0.9062 ± 0.0091 mPa·s | viscosity (298.15 K, 101 kPa, x2 = 0.0006576, x1 = 0.0001801): 0.9165 ± 0.0092 mPa·s | viscosity (298.15 K, 101 kPa, x2 = 0.0006584, x1 = 9.003e-05): 0.9153 ± 0.0092 mPa·s | viscosity (298.15 K, 101 kPa, x2 = 0.0006587, x1 = 0.00027): 0.918 ± 0.036 mPa·s | viscosity (298.15 K, 101 kPa, x2 = 0.0006597, x1 = 0.00036): 0.919 ± 0.0092 mPa·s | viscosity (298.15 K, 101 kPa, x2 = 0.0009539, x1 = 9.001e-05): 0.9257 ± 0.0092 mPa·s | viscosity (298.15 K, 101 kPa, x2 = 0.0009554, x1 = 0.00018): 0.93 ± 0.26 mPa·s | viscosity (298.15 K, 101 kPa, x2 = 0.0009567, x1 = 0.0003599): 0.9295 ± 0.0093 mPa·s | viscosity (298.15 K, 101 kPa, x2 = 0.0009569, x1 = 0.00027): 0.9283 ± 0.0092 mPa·s | viscosity (298.15 K, 101 kPa, x2 = 0.001253, x1 = 8.998e-05): 0.9373 ± 0.0093 mPa·s | viscosity (298.15 K, 101 kPa, x2 = 0.001255, x1 = 0.0001799): 0.9386 ± 0.0093 mPa·s | viscosity (298.15 K, 101 kPa, x2 = 0.001255, x1 = 0.0002699): 0.9398 ± 0.0093 mPa·s | viscosity (298.15 K, 101 kPa, x2 = 0.001257, x1 = 0.0003598): 0.9411 ± 0.0093 mPa·s | viscosity (298.15 K, 101 kPa, x2 = 0.001555, x1 = 8.995e-05): 0.9478 ± 0.0094 mPa·s | viscosity (298.15 K, 101 kPa, x2 = 0.001556, x1 = 0.0001799): 0.9491 ± 0.0094 mPa·s | viscosity (298.15 K, 101 kPa, x2 = 0.001558, x1 = 0.0002698): 0.95 ± 0.24 mPa·s | viscosity (298.15 K, 101 kPa, x2 = 0.001561, x1 = 0.0003597): 0.9516 ± 0.0094 mPa·s | viscosity (298.15 K, 101 kPa, x2 = 0.001859, x1 = 8.992e-05): 0.9569 ± 0.0094 mPa·s | viscosity (298.15 K, 101 kPa, x2 = 0.00186, x1 = 0.0001798): 0.9582 ± 0.0094 mPa·s | viscosity (298.15 K, 101 kPa, x2 = 0.001863, x1 = 0.0002697): 0.9594 ± 0.0094 mPa·s | viscosity (298.15 K, 101 kPa, x2 = 0.001866, x1 = 0.0003596): 0.9607 ± 0.0094 mPa·s | viscosity (308.15 K, 101 kPa, x2 = 0.0003644, x1 = 0.0003601): 0.7352 ± 0.0083 mPa·s | viscosity (308.15 K, 101 kPa, x2 = 0.0003645, x1 = 9.006e-05): 0.7314 ± 0.0083 mPa·s | viscosity (308.15 K, 101 kPa, x2 = 0.000365, x1 = 0.0001801): 0.7327 ± 0.0083 mPa·s | viscosity (308.15 K, 101 kPa, x2 = 0.0003656, x1 = 0.0002701): 0.7339 ± 0.0083 mPa·s | viscosity (308.15 K, 101 kPa, x2 = 0.0006576, x1 = 0.0001801): 0.7418 ± 0.0083 mPa·s | viscosity (308.15 K, 101 kPa, x2 = 0.0006584, x1 = 9.003e-05): 0.7406 ± 0.0083 mPa·s | viscosity (308.15 K, 101 kPa, x2 = 0.0006587, x1 = 0.00027): 0.7431 ± 0.0083 mPa·s | viscosity (308.15 K, 101 kPa, x2 = 0.0006597, x1 = 0.00036): 0.7443 ± 0.0083 mPa·s | viscosity (308.15 K, 101 kPa, x2 = 0.0009539, x1 = 9.001e-05): 0.7497 ± 0.0083 mPa·s | viscosity (308.15 K, 101 kPa, x2 = 0.0009554, x1 = 0.00018): 0.751 ± 0.0083 mPa·s | viscosity (308.15 K, 101 kPa, x2 = 0.0009567, x1 = 0.0003599): 0.7535 ± 0.0084 mPa·s | viscosity (308.15 K, 101 kPa, x2 = 0.0009569, x1 = 0.00027): 0.7522 ± 0.0084 mPa·s | viscosity (308.15 K, 101 kPa, x2 = 0.001253, x1 = 8.998e-05): 0.7589 ± 0.0084 mPa·s | viscosity (308.15 K, 101 kPa, x2 = 0.001255, x1 = 0.0001799): 0.7602 ± 0.0084 mPa·s | viscosity (308.15 K, 101 kPa, x2 = 0.001255, x1 = 0.0002699): 0.7614 ± 0.0084 mPa·s | viscosity (308.15 K, 101 kPa, x2 = 0.001257, x1 = 0.0003598): 0.7626 ± 0.0084 mPa·s | viscosity (308.15 K, 101 kPa, x2 = 0.001555, x1 = 8.995e-05): 0.7692 ± 0.0084 mPa·s | viscosity (308.15 K, 101 kPa, x2 = 0.001556, x1 = 0.0001799): 0.7705 ± 0.0084 mPa·s | viscosity (308.15 K, 101 kPa, x2 = 0.001558, x1 = 0.0002698): 0.7717 ± 0.0084 mPa·s | viscosity (308.15 K, 101 kPa, x2 = 0.001561, x1 = 0.0003597): 0.773 ± 0.0085 mPa·s | viscosity (308.15 K, 101 kPa, x2 = 0.001859, x1 = 8.992e-05): 0.7784 ± 0.0085 mPa·s | viscosity (308.15 K, 101 kPa, x2 = 0.00186, x1 = 0.0001798): 0.7797 ± 0.0085 mPa·s | viscosity (308.15 K, 101 kPa, x2 = 0.001863, x1 = 0.0002697): 0.7809 ± 0.0085 mPa·s | viscosity (308.15 K, 101 kPa, x2 = 0.001866, x1 = 0.0003596): 0.7822 ± 0.0085 mPa·s | viscosity (318.15 K, 101 kPa, x2 = 0.0003644, x1 = 0.0003601): 0.6088 ± 0.0077 mPa·s | viscosity (318.15 K, 101 kPa, x2 = 0.0003645, x1 = 9.006e-05): 0.605 ± 0.0077 mPa·s | viscosity (318.15 K, 101 kPa, x2 = 0.000365, x1 = 0.0001801): 0.6062 ± 0.0077 mPa·s | viscosity (318.15 K, 101 kPa, x2 = 0.0003656, x1 = 0.0002701): 0.6075 ± 0.0077 mPa·s | viscosity (318.15 K, 101 kPa, x2 = 0.0006576, x1 = 0.0001801): 0.6142 ± 0.0077 mPa·s | viscosity (318.15 K, 101 kPa, x2 = 0.0006584, x1 = 9.003e-05): 0.6129 ± 0.0077 mPa·s | viscosity (318.15 K, 101 kPa, x2 = 0.0006587, x1 = 0.00027): 0.615 ± 0.045 mPa·s | viscosity (318.15 K, 101 kPa, x2 = 0.0006597, x1 = 0.00036): 0.6167 ± 0.0077 mPa·s | viscosity (318.15 K, 101 kPa, x2 = 0.0009539, x1 = 9.001e-05): 0.6208 ± 0.0077 mPa·s | viscosity (318.15 K, 101 kPa, x2 = 0.0009554, x1 = 0.00018): 0.62 ± 0.14 mPa·s | viscosity (318.15 K, 101 kPa, x2 = 0.0009567, x1 = 0.0003599): 0.6246 ± 0.0078 mPa·s | viscosity (318.15 K, 101 kPa, x2 = 0.0009569, x1 = 0.00027): 0.6234 ± 0.0078 mPa·s | viscosity (318.15 K, 101 kPa, x2 = 0.001253, x1 = 8.998e-05): 0.6288 ± 0.0078 mPa·s | viscosity (318.15 K, 101 kPa, x2 = 0.001255, x1 = 0.0001799): 0.63 ± 0.0078 mPa·s | viscosity (318.15 K, 101 kPa, x2 = 0.001255, x1 = 0.0002699): 0.6313 ± 0.0078 mPa·s | viscosity (318.15 K, 101 kPa, x2 = 0.001257, x1 = 0.0003598): 0.6326 ± 0.0078 mPa·s | viscosity (318.15 K, 101 kPa, x2 = 0.001555, x1 = 8.995e-05): 0.6355 ± 0.0078 mPa·s | viscosity (318.15 K, 101 kPa, x2 = 0.001556, x1 = 0.0001799): 0.6368 ± 0.0078 mPa·s | viscosity (318.15 K, 101 kPa, x2 = 0.001558, x1 = 0.0002698): 0.64 ± 0.13 mPa·s | viscosity (318.15 K, 101 kPa, x2 = 0.001561, x1 = 0.0003597): 0.6393 ± 0.0078 mPa·s | viscosity (318.15 K, 101 kPa, x2 = 0.001859, x1 = 8.992e-05): 0.6425 ± 0.0078 mPa·s | viscosity (318.15 K, 101 kPa, x2 = 0.00186, x1 = 0.0001798): 0.6438 ± 0.0078 mPa·s | viscosity (318.15 K, 101 kPa, x2 = 0.001863, x1 = 0.0002697): 0.6451 ± 0.0079 mPa·s | viscosity (318.15 K, 101 kPa, x2 = 0.001866, x1 = 0.0003596): 0.6464 ± 0.0079 mPa·s

C[NH+](C)C.O=S(=O)([N-]S(=O)(=O)C(F)(F)F)C(F)(F)F + N#CCCCC#N
viscosity (288 K, 101 kPa, x1 = 0.2167): 15.76 ± 0.21 mPa·s | viscosity (298 K, 101 kPa, x1 = 0.2167): 11.43 ± 0.15 mPa·s | viscosity (318 K, 101 kPa, x1 = 0.2167): 6.747 ± 0.082 mPa·s | viscosity (353 K, 101 kPa, x1 = 0.2167): 3.452 ± 0.04 mPa·s
